In patent US11639350B2, “Heteroaryldihydropyrimidine derivatives and methods of treating hepatitis B infections” (Janssen Pharmaceutica NV, priority 2018, dated 2023):

Tests used:
HBV = HBV inhibitory activity: HBV DNA in the culture medium of HepG2.2.15 cells by q-PCR; format: cell-based; conditions: Hepatitis B virus, HepG2.2.15, 144 h, HepG2.2.15 cells, 6 days of compound treatment, HBV DNA in culture medium by q-PCR, highest concentration 10 μM; read-out: EC50
In short: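 Supernatant HBV DNA quantified by q-PCR after a 6-day compound exposure, with one mid-course medium change, of HepG2.2.15 cells (stably integrated HBV; 40,000 per well, 2% FBS). Eight-point 3-fold series topped at 10 μM for antiviral EC50; separate plates of 5,000 cells per well with 100 μM top give CC50.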

[1] = Cytotoxicity determination in HepG2.2.15 cells (CCK-8); format: cell-based; conditions: human, 6 days of compound treatment, CCK-8, highest concentration 100 μM
In short: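 CC50 is from CCK-8 absorbance (450 nm, 630 nm reference) after 2.5 h with reagent. Before that, compounds were applied for six days, top concentration 100 μM, eight threefold dilutions, one mid-course medium change, to stably HBV-integrated HepG2.2.15 cells plated at 5,000/well in 2% FBS.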

SMILES | EC50 (HBV) [nM] | CC50 at 6 days [1] [nM]
COC(=O)C1=C(C2CCN(S(=O)(=O)C3CN(CCOC(C)(C)C)C3)CC2)NC(c2nccs2)=NC1c1ccc(F)c(F)c1Cl (centres unmarked) [Compound 248, Methyl 6-(1-((1-(2-(tert-butoxy)ethyl)azetidin-3-yl)sulfonyl)piperidin-4-yl)-4-(2-chloro-3,4-difluorophenyl)-2-(thiazol-2-yl)-1,4-dihydropyrimidine-5-carboxylate] | 56 | 3500
COC(=O)C1=C(C2CCN(S(=O)(=O)c3cnn(C4CC4)c3)CC2)NC(c2nccs2)=NC1c1ccc(F)cc1Cl (centres unmarked) [Compound 254] | 47 | > 100000
COC(=O)C1=C(C2CCN(S(=O)(=O)C3COC3)C2)NC(c2nccs2)=NC1c1ccc(F)cc1Cl (centres unmarked) [Compound 255, Methyl 4-(2-chloro-4-fluorophenyl)-6-(−1-(oxetan-3-ylsulfonyl)pyrrolidin-3-yl)-2-(thiazol-2-yl)-1,4-dihydropyrimidine-5-carboxylate] | 49 | 24100
COC(=O)C1=C(C23CC(C(=O)O)(C2)C3)NC(c2nccs2)=NC1c1ccc(F)cc1Cl (centres unmarked) [Compound 258B, 3-(6-(2-Chloro-4-fluorophenyl)-5-(methoxycarbonyl)-2-(thiazol-2-yl)-3,6-dihydropyrimidin-4-yl)bicyclo[1.1.1]pentane-1-carboxylic Acid] | 401 | 27400
CNC(=O)C1COC(C2=C(C(=O)OC)C(c3cccc(F)c3Cl)N=C(c3nccs3)N2)C1 (centres unmarked) [Compound 263, Methyl 4-(2-chloro-3-fluorophenyl)-6-(4-(methylcarbamoyl)-tetrahydrofuran-2-yl)-2-(thiazol-2-yl)-1,4-dihydropyrimidine-5-carboxylate] | 150 | 81100
COC(=O)C1=C(C2CNC(=O)C2)NC(c2nccs2)=NC1c1cccc(F)c1Cl (centres unmarked) [Compound 284, methyl 4-(2-chloro-3-fluorophenyl)-6-(−5-oxopyrrolidin-3-yl)-2-(thiazol-2-yl)-1,4-dihydropyrimidine-5-carboxylate] | 226 | 21100
COC(=O)C1=C(C2CC(O)C2)NC(c2nccs2)=NC1c1ccc(F)cc1Cl (centres unmarked) [Compound 295, Methyl 4-(2-chloro-4-fluorophenyl)-6-(3-hydroxycyclobutyl)-2-(thiazol-2-yl)-1,4-dihydropyrimidine-5-carboxylate] | 215 | 64200
COC(=O)C1=C(C2CCN(C(N)=O)CC2)NC(c2nccs2)=NC1c1ccc(F)cc1Cl (centres unmarked) [Compound 303, Methyl 6-(1-carbamoylpiperidin-4-yl)-4-(2-chloro-4-fluorophenyl)-2-(thiazol-2-yl)-1,4-dihydropyrimidine-5-carboxylate] | 54 | > 100000
COC(=O)C1=C(C2CCN(S(=O)(=O)[C@H]3C[C@H](C(=O)O)C3)CC2)NC(c2nccs2)=NC1c1ccc(F)c(F)c1C (stereo partly drawn) [Compound 309C, (trans)-3-((4-(6-(3,4-Difluoro-2-methylphenyl)-5-(methoxycarbonyl)-2-(thiazol-2-yl)-3,6-dihydropyrimidin-4-yl)piperidin-1-yl)sulfonyl)cyclobutanecarboxylic Acid] | 47 | 36200
CCOC(=O)C1=C(C2CCN(S(=O)(=O)[C@H]3C[C@H](C(=O)O)C3)CC2)NC(c2nccs2)=NC1c1cccc(F)c1Cl (stereo partly drawn) [Compound 319B, (trans)-3-((4-(6-(2-chloro-3-fluorophenyl)-5-(ethoxycarbonyl)-2-(thiazol-2-yl)-3,6-dihydropyrimidin-4-yl)piperidin-1-yl)sulfonyl)-cyclobutanecarboxylic Acid] | 102 | 31300
COC(=O)C1=C(C2CCN(S(=O)(=O)c3cn[nH]c3)CC2)NC(c2nccs2)=NC1c1ccc(F)c(F)c1Cl (centres unmarked) [Compound 324, methyl 6-(1-((1H-pyrazol-4-yl)sulfonyl)piperidin-4-yl)-4-(2-chloro-3,4-difluorophenyl)-2-(thiazol-2-yl)-1,4-dihydropyrimidine-5-carboxylate] | 5 | 9800
COC(=O)C1=C(C2CCN(S(=O)(=O)c3cnn(CC(O)C(F)(F)F)c3)CC2)NC(c2nccs2)=NC1c1ccc(F)c(F)c1Cl (centres unmarked) [Compound 325, Methyl 4-(2-chloro-3,4-difluorophenyl)-2-(thiazol-2-yl)-6-(1-((1-(3,3,3-trifluoro-2-hydroxypropyl)-1H-pyrazol-4-yl)sulfonyl)piperidin-4-yl)-1,4-dihydropyrimidine-5-carboxylate] | 5 | 7900
CCOC(=O)C1=C(C2CCN(S(=O)(=O)[C@H]3C[C@H](C(=O)O)C3)CC2)NC(c2nccs2)=NC1c1ccc(F)cc1Cl (stereo partly drawn) [Compound 329B, (trans)-3-((4-(6-(2-Chloro-4-fluorophenyl)-5-(ethoxycarbonyl)-2-(thiazol-2-yl)-3,6-dihydropyrimidin-4-yl)piperidin-1-yl)sulfonyl)cyclobutane-carboxylic Acid] | 69 | 60000
COC(=O)C1=C(C2CCN(S(=O)(=O)[C@H]3C[C@H](C(=O)O)C3)CC2)NC(c2nccs2)=NC1c1cccc(F)c1Cl (stereo partly drawn) [Compound 331C, (trans)-3-((4-(6-(2-Chloro-3-fluorophenyl)-5-(methoxycarbonyl)-2-(thiazol-2-yl)-3,6-dihydropyrimidin-4-yl)piperidin-1-yl)sulfonyl)cyclobutane-carboxylic Acid] | 192 | > 100000
CCOC(=O)C1=C(C2CCN(S(=O)(=O)[C@H]3C[C@H](C(=O)O)C3)CC2)NC(c2nccs2)=NC1c1ccc(F)cc1Br (stereo partly drawn) [Compound 333B, (trans)-3-((4-(6-(2-bromo-4-fluorophenyl)-5-(ethoxycarbonyl)-2-(thiazol-2-yl)-3,6-dihydropyrimidin-4-yl)piperidin-1-yl)sulfonyl)cyclobutane-1-carboxylic Acid] | 35 | 33100
CCOC(=O)C1=C([C@H]2CC[C@H](C(=O)O)CC2)NC(c2nccs2)=NC1c1ccc(F)c(F)c1Br (stereo partly drawn) [Compound 347B, (trans)-4-(6-(2-bromo-3,4-difluorophenyl)-5-(ethoxycarbonyl)-2-(thiazol-2-yl)-3,6-dihydropyrimidin-4-yl)cyclohexanecarboxylic Acid] | 110 | 31400
COC(=O)C1=C(C23CC(C(C)O)(C2)C3)NC(c2nccs2)=NC1c1ccc(F)cc1Cl (centres unmarked) [Compound 348B, Methyl 4-(2-chloro-4-fluorophenyl)-6-(3-(1-hydroxyethyl)bicyclo[1.1.1]pentan-1-yl)-2-(thiazol-2-yl)-1,4-dihydropyrimidine-5-carboxylate] | 63 | 25000
CCOC(=O)C1=C(C2CCN(S(=O)(=O)[C@H]3C[C@H](C(=O)O)C3)CC2)NC(c2ncc(F)cc2F)=NC1c1ccc(F)c(F)c1Cl (some centres unmarked) [Compound 352B] | 11 | 29400
COC(=O)C1=C(C2CCN(S(=O)(=O)[C@H]3C[C@H](CO)C3)CC2)NC(c2nccs2)=N[C@@H]1c1ccc(F)cc1Cl [Compound 357A, (trans)-Methyl 4-(2-chloro-4-fluorophenyl)-6-(1-((3-(hydroxymethyl)cyclobutyl)sulfonyl)piperidin-4-yl)-2-(thiazol-2-yl)-1,4-dihydropyrimidine-5-carboxylate] | 37 | 13600
